Measured values published in PMC6424957 (Scientific Reports, 2019).

Key:
[1] = target: T1, AChE from human erythrocytes (Homo sapiens, UniProt P22303); format: biochemical; settings: for αKi (non-competitive component), AChE / Ki: Lineweaver-Burk analysis; for Ki: read-out: Ki (competitive component), AChE
T1 construct: Acetylcholinesterase (AChE, EC 3.1.1.7, from human erythrocyte); purchased Sigma-Aldrich (Germany); host or cells: human erythrocytes
Procedure: (§1) To elucidate the inhibition mechanisms for the active compounds, the AChE and BChE residual activity was determined in the presence of 3 increasing concentrations of the test compounds and 6 decreasing concentrations of the substrates. The test compounds were preincubated with the enzymes at 25 °C for 5 min, followed by the addition of the substrates. Parallel controls were made for an assay of the rate of hydrolysis of the same concentrations of substrates in the solutions with no inhibitor. […] Each experiment was performed three times.

BChE from equine serum = target: T2, BChE from equine serum (Equus caballus, UniProt P81908); format: biochemical; settings: for αKi (non-competitive component), BChE / Ki: Lineweaver-Burk analysis; for Ki: read-out: Ki (competitive component), BChE
T2 construct: butyrylcholinesterase (BChE, EC 3.1.1.8, from equine serum); purchased Sigma-Aldrich (Germany); host or cells: equine serum
T2 sequence (P81908 whole entry): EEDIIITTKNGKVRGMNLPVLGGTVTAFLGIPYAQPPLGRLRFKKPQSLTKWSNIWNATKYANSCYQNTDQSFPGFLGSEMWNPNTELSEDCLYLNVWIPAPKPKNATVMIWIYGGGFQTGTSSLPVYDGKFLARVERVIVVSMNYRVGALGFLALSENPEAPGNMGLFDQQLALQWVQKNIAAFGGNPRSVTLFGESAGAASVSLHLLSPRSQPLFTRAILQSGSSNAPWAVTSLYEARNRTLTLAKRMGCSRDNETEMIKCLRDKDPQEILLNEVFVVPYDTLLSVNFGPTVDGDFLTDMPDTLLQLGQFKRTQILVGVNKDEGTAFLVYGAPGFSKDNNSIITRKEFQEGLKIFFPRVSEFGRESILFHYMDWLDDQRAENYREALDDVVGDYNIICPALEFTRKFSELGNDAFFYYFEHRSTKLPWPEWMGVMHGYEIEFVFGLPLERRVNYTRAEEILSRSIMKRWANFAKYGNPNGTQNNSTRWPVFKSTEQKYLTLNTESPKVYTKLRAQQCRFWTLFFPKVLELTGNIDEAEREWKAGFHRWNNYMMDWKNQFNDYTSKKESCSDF
Procedure: as §1

[2] = cited from earlier work
[3] = Lineweaver-Burk plots, changes in Vmax and Km

T1 sequence (P22303 32-617 isoform P22303-2 limits assumed): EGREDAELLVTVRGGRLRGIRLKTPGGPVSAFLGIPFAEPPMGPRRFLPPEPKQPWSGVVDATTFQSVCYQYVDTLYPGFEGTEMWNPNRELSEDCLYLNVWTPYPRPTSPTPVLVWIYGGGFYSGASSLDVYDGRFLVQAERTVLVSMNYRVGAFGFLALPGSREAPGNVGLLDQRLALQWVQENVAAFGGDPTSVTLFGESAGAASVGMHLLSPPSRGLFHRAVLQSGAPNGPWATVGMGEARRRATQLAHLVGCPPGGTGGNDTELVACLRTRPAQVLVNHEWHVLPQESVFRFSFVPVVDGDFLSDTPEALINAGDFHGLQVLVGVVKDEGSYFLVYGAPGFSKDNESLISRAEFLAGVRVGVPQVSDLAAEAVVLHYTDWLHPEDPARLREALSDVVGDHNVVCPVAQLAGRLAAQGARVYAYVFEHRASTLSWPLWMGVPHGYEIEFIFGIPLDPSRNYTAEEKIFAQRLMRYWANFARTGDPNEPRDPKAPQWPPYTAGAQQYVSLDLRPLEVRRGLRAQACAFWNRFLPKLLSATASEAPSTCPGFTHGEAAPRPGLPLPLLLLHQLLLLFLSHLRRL

SMILES	αKi (non-competitive component), AChE [1] [µM]	Ki [1] [nM]	type of AChE inhibition [1, 3]	αKi (non-competitive component), BChE (BChE from equine serum) [µM]	Ki (BChE from equine serum) [nM]	type of BChE inhibition (BChE from equine serum; [3])	redox potential [2] [mV]
Cc1ccc2c(c1)c1c(n2CCC(=O)N2c3ccc(N(C)C)cc3Sc3cc(N(C)C)ccc32)CCN(C)C1 [Compound 3]	3.35 ± 0.31	880 ± 70	mixed-type inhibition	2.09 ± 0.19	370 ± 30	mixed-type inhibition	–
Cc1ccc2c(c1)c1c(n2CCC(=O)N2c3ccc(N(C)C)cc3Sc3cc(N(C)C)ccc32)CCN(C(C)C)C1.Cl.Cl.Cl [Compound 6]	13.4 ± 1.2	3520 ± 290	–	2.64 ± 0.24	530 ± 40	–	–
CN(C)c1ccc2nc3ccc(=[N+](C)C)cc-3sc2c1 [MB, methylene blue, reference compound]	–	–	–	–	–	–	11
